Laboratory results from article PMC8244865, “Recruitment of phospholipase Cγ1 to the non-structural membrane protein pK15 of Kaposi Sarcoma-associated herpesvirus promotes its Src-dependent phosphorylation” (PLoS Pathogens, 2021).

T1: PLCγ1 nSH2 (Homo sapiens, UniProt P19174)
T1 construct: nSH2 (545–662): 180 ± 43 nM; thioredoxin (pETM22 fusion, purified on Ni column) (N, cleaved yes); made in house; host or cells: E. coli BL21(DE3)
T1 sequence (P19174 545-662): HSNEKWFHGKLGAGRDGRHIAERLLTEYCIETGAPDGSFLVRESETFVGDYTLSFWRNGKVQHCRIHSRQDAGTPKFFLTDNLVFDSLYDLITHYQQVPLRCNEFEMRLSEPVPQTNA

B1: pK15 CT^WT: pK15 cytoplasmic tail fused to GST at its N-terminal end, phosphorylated in vitro by Src (protein)
chain: SQLLNEVELQEVNRDPPNVFGYASILVSGAEESREPSPQPDQSGMSILRVDGGSAFRIDTAQAATQPTDDLYEEVLFPRN
modifications: tyrosine-phosphorylated in vitro by Src; sites not stated for this construct; left off: GST, N-terminal, kept

Key:
[1] = biological target: T1, PLCγ1 nSH2; test: 1H,15N HSQC NMR titration, PLCγ1 nSH2; type: binding; settings: 1H-15N HSQC titration
Description: Fig 5 Affinity of pK15 peptide for PLCγ1 tSH2 or individual SH2 domains. (A) Binding curves of several PLCγ1 fragments in the presence of 200 nM 5,6-FAM-labelled pK15 (12mer). All measurements were performed in triplicate. […] (B and C) Overlay of ^1H,^15N HSQC NMR spectra of nSH2 (B) and cSH2 (C) alone (in yellow) and in the presence of 2 molar equivalents of the pK15 12mer peptide (blue), measured with a 600 MHz spectrometer at 298 K. The protein concentration was 100 μM and the buffer contained 100 mM MES, 150 mM NaCl, 3 mM TCEP, pH 6.5. (D and E) Excerpts from ^1H-^15N HSQC spectra of nSH2 (D) and cSH2 (E) upon addition of increasing concentrations of the pK15 12mer peptide.
Next, we used Nuclear Magnetic Resonance (NMR) spectroscopy to further compare the interaction of the phosphorylated pK15 12mer to the isolated nSH2 and cSH2 domains (Fig 5B–5E). We recorded ^1H-^15N HSQC spectra of each of the two domains in the presence of increasing concentrations of the pK15 peptide. In this spectrum, each N-H group of the protein gives rise to one peak. […] A change in the position of a few NMR peaks of the amide groups of the protein upon addition of the peptide is indicative of binding. […] The behavior of the NMR peaks during the titration series, however, differed for the two SH2 domains, indicating different binding kinetics. […] In light of this, it is conceivable that the preference of pK15 CT for cSH2 in vivo may be determined by kinetic rather than thermodynamic factors.
NMR experiments were recorded at 298 K on a 600-MHz Bruker Avance III-HD spectrometer equipped with an inverse HCN cryogenic probehead (nitrogen-cooled) and running Topspin 3.2 software. 2D ^15N-HSQC spectra were recorded using States-TPPI for frequency discrimination, with water suppression achieved via a combination of WATERGATE and water flip-back pulses to preserve the water magnetization. NMR data were processed in Topspin and analysed in CcpNmr Analysis v2.4 [74].

[2] = test system: PLCγ1 SA R586L or R694L; test: GST-pulldown, PLCγ1 SA R586L or R694L; type: binding; settings: phosphorylated, HEK 293T, versus WT
Description: Fig 3 Contribution of individual PLCγ1 SH2 domains to the interaction with phosphorylated pK15. The pK15 CT fused to GST, its Y^481F mutant, or GST alone were bound to glutathione beads, phosphorylated in vitro (+) or left unphosphorylated (-), and a GST pulldown was performed 32h after transfection into HEK-293T cells of expression vectors for S-tagged full-length PLCγ1 (FL) (A) or PLCγ1 SA (B) containing the indicated mutations. (C) pK15 CT WT, its Y^481F mutant or GST were bound to glutathione beads, phosphorylated in vitro (+) or left unphosphorylated (-), and used for a GST pulldown assay 32h after transfecting HEK 293T cells with expression vectors for S-tagged individual PLCγ1 nSH2 or cSH2 domains. […]
HEK293T cells were washed once with cold PBS 30 hours after transfection, lysed in IP buffer (50 mM Tris pH7.6, 60 mM NaCl, 6.25 mM EDTA, 1% (v/v) glycerol, 0.04% (v/v) NP-40) on ice for 30 minutes, sonicated shortly and cleared by centrifugation for 10 minutes at 20.000g, 4°C. […] Beads were then washed 5 times in 500 μl IP buffer (or for purified proteins IP buffer with 200 mM NaCl), suspended in 10 μl of 5x Laemmli sample buffer (60 mM Tris pH6.8, 24% (v/v) glycerol, 2% (v/v) SDS, 5% (v/v) β-mercaptoethanol, 0.01% Bromphenol Blue) and analysed by western blot.

Row | Molecule | dissociation rate koff or association rate kon of nSH2–peptide complex relative to cSH2–peptide complex ([1]; 298 K, pH 6.5) | NMR exchange regime ([1]; 600 MHz, 298 K, 100 μM protein, 100 mM MES, 150 mM NaCl, 3 mM TCEP, pH 6.5) | affinity for nSH2 compared with cSH2 (NMR) ([1]; same saturating concentration of peptide, either nSH2 or cSH2) | binding of mutants (GST-pulldown) [2]
1 | DDLpYEEVLFPRN [pK15 12mer, phosphorylated peptide representing the last 12 amino acids of pK15 CT (DDLp…)] | more than one order of magnitude slower than the corresponding rate of the cSH2–peptide complex | slow exchange regime | both domains bound the K15 peptide with similar affinity | 
2 | B1 |  |  |  | strongly reduced binding
